Measured values published in PubChem BioAssay AID602238 (National Center for Advancing Translational Sciences (NCATS), 2012).

Each compound was assayed on mouse liver microsomes, percent remaining, LC-MS/MS (assay: qHTS for Activators of Human alpha-Glucosidase as a Potential Chaperone Treatment of Pompe Disease: Metabolic Stability). Settings: at 5 µM; stronger effect = higher value.
Text: Alpha-glucosidase is responsible for hydrolysis of terminal, non-reducing 1,4-linked alpha-D-glucose residues with release of alpha-D-glucose. It is a lysosomal hydrolase that is required for the degradation of a small percentage (1-3%) of cellular glycogen in human. Deficiency of this enzyme results in glycogen-storage disease type II (GSDII), also referred to as Pompe disease, an autosomal recessive disorder. Structurally normal glycogen is accumulated in lysosomes and cytoplasm in affected patients, primarily in muscle tissues. Excessive glycogen storage within lysosomes may interrupt normal functioning of other organelles and leads to cellular injury. In turn, this leads to enlargement and dysfunction of the entire organ involved (eg, cardiomyopathy and muscle weakness). It has reported that the improper folding and trafficking of alpha-glucosidase resulting from the genetic mutations may account for a significant number of Pompe patients. […] We optimized this alpha-glucosidase assay in 1536-well plate format for identifying the novel small molecule inhibitors with the structures other than the sugar analogs in order to develop the new pharmacological chaperones. The probe and other compounds were characterized in this metabolic stability assay to asses their properties. NIH Chemical Genomics Center [NCGC] NIH Molecular Libraries Probe Production Centers Network [MLPCN] MLPCN Grant: MH084841 Assay Submitter (PI): Wei Zheng
5uM of compound is incubated with mouse liver microsome; the reference compounds are verapamil and warfarin. Compounds are incubated and samples are analyzed with LC-MS/MS.

Structure (SMILES)	percent remaining [%]
CCCN1CNc2c(c(=O)[nH]c(=S)n2Cc2ccc(OC)c(OC)c2)C1	101
CCCN1CNc2c(c(=O)[nH]c(=S)n2CCc2ccc(OC)c(OC)c2)C1	4
CCCN1CNc2c(c(=O)[nH]c(=S)n2CCc2cccc(Cl)c2Cl)C1	105
